Measurements taken from patent US20240041842A1, “PHARMACEUTICAL COMPOSITION FOR INHIBITING CANCER METASTASIS” (INDUSTRY-ACADEMIC COOPERATION FOUNDATION, YONSEI UNIVERSITY, priority 2021, published 2024).

Key:
Type in all cases: cell-based, human
[1] = test system: KRAS-mutant pancreatic cancer cells; test: Matrigel invasion assay, pancreatic cancer cell lines; conditions: 100 uM chloroquine, 24 hours
Experimental: FIG. 12C illustrates changes in matrigel invasiveness after treating the pancreatic cancer cell line with 100 uM chloroquine (CQ) for 24 hours, and the bright-field micrographs of cells infiltrating through the matrigel coated transwell membrane (top) and quantification results (bottom) are shown.
For the 2D invasion assay, the inserts were pre-coated with 300 μg/ml Matrigel (Coming, 354234). After staining with […] dye (Bio-Rad, 1450013), 1×10^5 live cells per 8-um-pore cell-culture insert (Costar. 3422) were seeded in 0.5% ACL medium. 10% ACL medium was added to the outside of the insert. In the case of lung cancer and pancreatic cancer cell lines, after inoculation in 1% RPMI medium, 20% RPMI medium was added to the outside of the insert. Plates were incubated for 24 hours at 37° C. After incubation, the insert was fixed with 3.7% PFA, washed, stained with 0.4% crystal violet, and the upper membrane was washed and dried.

[2] = test system: LC3; test: Autophagic flux (LC3 Western blot, mRFP-GFP-LC3 lysosomal delivery assay); conditions: HBEC-KL cells; 50 uM chloroquine for 6 hours
[3] = test system: SNAI1 gene; test: Real-time PCR of SNAI1 gene; conditions: HBEC-KL cell line; 50 uM chloroquine, 24 hours
Experimental: After synthesizing complementary DNA (cDNA) using the TOPscript·8 cDNA synthesis kit (Enzynomics, EZ0054), gRT-PCR was performed with TCPreal™ gRCR 2× PreMIX (SYBR Green with low ROX) (Enzynomics, RT501M). GAPDH and beta-actin were used for RNA normalization. qRT-PCR was performed with a StepOne Plus (Applied Biosystems) instrument.

[4] = test system: Intracellular acetyl-CoA; test: Acetyl-CoA measurement; conditions: KRAS-mutant pancreatic cancer cells; 100 uM chloroquine, 24 hours
Experimental: Intracellular acetyl-CoA levels were calculated in the pmol range using the PicoProbe Acetyl-CoA Assay Kit (Biovision, K317). […] After correcting the background in all readings, the value of each sample was determined and normalized to the protein concentration of each sample.

[5] = test system: acetylated Snail; test: Immunoprecipitation-immunoblot of acetylated Snail; conditions: KRAS-mutant pancreatic cancer cells; 100 uM chloroquine, 24 hours
Experimental: Cell lysates (1 μg protein) were incubated overnight at 4° C. on anti-FLAG® M2 Affinity Gel (Sigma, A2220) or anti-acetyl-lysine antibody coated agarose (ImmuneChem Pharmaceuticals, ICP0388). The immunoprecipitate was then washed three times in IP buffer, and the immunoprecipitated complex was dissolved and separated by boiling in IP buffer for 5 minutes.
For SDS-PAGE electrophoresis, the immunoprecipitated complex was transferred to a nitrocellulose membrane and the membrane was blocked and then incubated for 1 hour at room temperature with Primary antibody and secondary antibody (VeriBlot for IP Detection Reagent (HRP) (Abcam, #ab131366), and anti-mouse IgG tor IP (HRP) (Abeam, #ab131368)).
After washing 3 times, the membrane was incubated with the secondary antibody.

[6] = test system: total protein acetylation; test: Western blot of total protein acetylation; conditions: HBEC-KL; 50 uM chloroquine, 24 hours; same effect = reduced
Experimental: Cells were harvested, washed with PBS, and lysed on ice with RIPA buffer containing protease and phophatase inhibitor cocktail (GenDEPOT). After 15 minutes of incubation, the cell lysates were centrifuged at 15,000 rpm at 4° C. for 10 minutes. Protein concentration was measured by Bradford assay (Bio-rad, 500-0006). Equal amounts of total protein were placed on an SDS gel electrophoresis and transferred to a PVDF membrane (Bio-rad). The membrane was blocked with 5% skim milk for 1 hour at room temperature and incubated overnight at 4° C. with primary antibody in a buffer containing 0.1% Tween-20. Subsequently, the membrane was washed three times with Tween-PBS buffer and incubated for 1 hour at room temperature using a secondary antibody diluted in blocking buffer containing 0.1% Tween-20. Subsequently, the membrane was washed three times for 10 minutes each using Tween-TBS. Densitometry of Western blots was measured using ImageJ software.

[7] = test system: Snail; test: Western blot of Snail protein; conditions: HBEC-KL cell line; chloroquine 12 to 48 hours

CCN(CC)CCCC(C)Nc1ccnc2cc(Cl)ccc12 (stereo not shown) [CQ, chloroquine]
2D Matrigel transwell invasion [1]: reduced
LC3-II accumulation [2]: high levels
SNAI1 mRNA expression level [3]: no change
acetyl-CoA [4]: reduced
acetylated Snail [5]: reduced
overall protein acetylation [6]: the same effect
expression level of Snail protein [7]: reduced
